Reference: the NIST ThermoML archive (doi:10.1021/acs.jced.6b00121)
± gives the expanded uncertainty stated by the source.

Experiment: xn = mol fraction of the nth substance listed
Conditions: 100 kPa, Liquid; for mass density: Vibrating tube method; for viscosity: Falling or rolling sphere viscometry

CCCCCCCCCCC [undecane] + CCCCCCO
Conditions	mass density [kg/m3]	viscosity [mPa·s]
323.15 K, x1 = 0.1011	783.63 ± 1.6	–
323.15 K, x1 = 0.1989	772.51 ± 1.6	–
323.15 K, x1 = 0.2998	762.31 ± 1.5	–
323.15 K, x1 = 0.4001	753.47 ± 1.5	–
323.15 K, x1 = 0.4994	745.77 ± 1.5	–
323.15 K, x1 = 0.6004	738.74 ± 1.5	–
323.15 K, x1 = 0.6989	732.65 ± 1.5	–
323.15 K, x1 = 0.8001	727.06 ± 1.5	–
323.15 K, x1 = 0.8991	722.24 ± 1.5	–
323.15 K, x1 = 1	718.11 ± 1.4	–
328.15 K, x1 = 0.1011	779.82 ± 1.6	1.612 ± 0.022
328.15 K, x1 = 0.1989	768.66 ± 1.6	1.374 ± 0.018
328.15 K, x1 = 0.2998	758.44 ± 1.5	1.18 ± 0.016
328.15 K, x1 = 0.4001	749.58 ± 1.5	1.039 ± 0.014
328.15 K, x1 = 0.4994	741.89 ± 1.5	0.93 ± 0.012
328.15 K, x1 = 0.6004	734.86 ± 1.5	0.862 ± 0.012
328.15 K, x1 = 0.6989	728.77 ± 1.5	0.793 ± 0.011
328.15 K, x1 = 0.8001	723.2 ± 1.5	0.747 ± 0.01
328.15 K, x1 = 0.8991	718.41 ± 1.4	0.724 ± 0.01
328.15 K, x1 = 1	714.39 ± 1.4	0.692 ± 0.009
333.15 K, x1 = 0.1011	775.97 ± 1.6	1.466 ± 0.02
333.15 K, x1 = 0.1989	764.78 ± 1.6	1.24 ± 0.017
333.15 K, x1 = 0.2998	754.53 ± 1.5	1.073 ± 0.014
333.15 K, x1 = 0.4001	745.66 ± 1.5	0.955 ± 0.013
333.15 K, x1 = 0.4994	737.97 ± 1.5	0.859 ± 0.011
333.15 K, x1 = 0.6004	730.93 ± 1.5	0.801 ± 0.011
333.15 K, x1 = 0.6989	724.87 ± 1.5	0.738 ± 0.01
333.15 K, x1 = 0.8001	719.31 ± 1.5	0.699 ± 0.009
333.15 K, x1 = 0.8991	714.55 ± 1.4	0.681 ± 0.009
333.15 K, x1 = 1	710.68 ± 1.4	0.651 ± 0.009
338.15 K, x1 = 0.1011	772.08 ± 1.6	1.318 ± 0.018
338.15 K, x1 = 0.1989	760.84 ± 1.5	1.124 ± 0.015
338.15 K, x1 = 0.2998	750.57 ± 1.5	0.982 ± 0.013
338.15 K, x1 = 0.4001	741.7 ± 1.5	0.878 ± 0.012
338.15 K, x1 = 0.4994	734.01 ± 1.5	0.796 ± 0.011
338.15 K, x1 = 0.6004	726.99 ± 1.5	0.744 ± 0.01
338.15 K, x1 = 0.6989	720.93 ± 1.5	0.691 ± 0.009
338.15 K, x1 = 0.8001	715.39 ± 1.4	0.656 ± 0.009
338.15 K, x1 = 0.8991	710.68 ± 1.4	0.641 ± 0.009
338.15 K, x1 = 1	706.95 ± 1.4	0.615 ± 0.008
343.15 K, x1 = 0.1011	768.13 ± 1.6	1.189 ± 0.016
343.15 K, x1 = 0.1989	756.86 ± 1.5	1.025 ± 0.014
343.15 K, x1 = 0.2998	746.58 ± 1.5	0.901 ± 0.012
343.15 K, x1 = 0.4001	737.7 ± 1.5	0.811 ± 0.011
343.15 K, x1 = 0.4994	730.01 ± 1.5	0.739 ± 0.01
343.15 K, x1 = 0.6004	723 ± 1.5	0.695 ± 0.009
343.15 K, x1 = 0.6989	716.95 ± 1.4	0.647 ± 0.009
343.15 K, x1 = 0.8001	711.44 ± 1.4	0.616 ± 0.008
343.15 K, x1 = 0.8991	706.79 ± 1.4	0.604 ± 0.008
343.15 K, x1 = 1	703.22 ± 1.4	0.58 ± 0.008
348.15 K, x1 = 0.1011	764.12 ± 1.5	1.054 ± 0.014
348.15 K, x1 = 0.1989	752.83 ± 1.5	0.934 ± 0.013
348.15 K, x1 = 0.2998	742.54 ± 1.5	0.828 ± 0.011
348.15 K, x1 = 0.4001	733.66 ± 1.5	0.75 ± 0.01
348.15 K, x1 = 0.4994	725.98 ± 1.5	0.687 ± 0.009
348.15 K, x1 = 0.6004	718.97 ± 1.5	0.652 ± 0.009
348.15 K, x1 = 0.6989	712.94 ± 1.4	0.607 ± 0.008
348.15 K, x1 = 0.8001	707.47 ± 1.4	0.58 ± 0.008
348.15 K, x1 = 0.8991	702.87 ± 1.4	0.571 ± 0.008
348.15 K, x1 = 1	699.47 ± 1.4	0.549 ± 0.007
353.15 K, x1 = 0.1011	760.07 ± 1.5	0.981 ± 0.013
353.15 K, x1 = 0.1989	748.76 ± 1.5	0.855 ± 0.011
353.15 K, x1 = 0.2998	738.45 ± 1.5	0.765 ± 0.01
353.15 K, x1 = 0.4001	729.57 ± 1.5	0.696 ± 0.009
353.15 K, x1 = 0.4994	721.9 ± 1.5	0.642 ± 0.009
353.15 K, x1 = 0.6004	714.9 ± 1.4	0.611 ± 0.008
353.15 K, x1 = 0.6989	708.9 ± 1.4	0.572 ± 0.008
353.15 K, x1 = 0.8001	703.47 ± 1.4	0.546 ± 0.007
353.15 K, x1 = 0.8991	698.94 ± 1.4	0.54 ± 0.007
353.15 K, x1 = 1	695.72 ± 1.4	0.522 ± 0.007
358.15 K, x1 = 0.1011	755.96 ± 1.5	0.895 ± 0.012
358.15 K, x1 = 0.1989	744.62 ± 1.5	0.787 ± 0.011
358.15 K, x1 = 0.2998	734.31 ± 1.5	0.707 ± 0.009
358.15 K, x1 = 0.4001	725.43 ± 1.5	0.649 ± 0.009
358.15 K, x1 = 0.4994	717.76 ± 1.4	0.6 ± 0.008
358.15 K, x1 = 0.6004	710.79 ± 1.4	0.573 ± 0.008
358.15 K, x1 = 0.6989	704.82 ± 1.4	0.54 ± 0.007
358.15 K, x1 = 0.8001	699.43 ± 1.4	0.516 ± 0.007
358.15 K, x1 = 0.8991	694.99 ± 1.4	0.512 ± 0.007
358.15 K, x1 = 1	691.96 ± 1.4	0.497 ± 0.007
363.15 K, x1 = 0.1011	751.78 ± 1.5	0.82 ± 0.011
363.15 K, x1 = 0.1989	740.43 ± 1.5	0.726 ± 0.01
363.15 K, x1 = 0.2998	730.12 ± 1.5	0.657 ± 0.009
363.15 K, x1 = 0.4001	721.24 ± 1.5	0.605 ± 0.008
363.15 K, x1 = 0.4994	713.59 ± 1.4	0.562 ± 0.008
363.15 K, x1 = 0.6004	706.64 ± 1.4	0.54 ± 0.007
363.15 K, x1 = 0.6989	700.7 ± 1.4	0.512 ± 0.007
363.15 K, x1 = 0.8001	695.37 ± 1.4	0.49 ± 0.007
363.15 K, x1 = 0.8991	691.02 ± 1.4	0.487 ± 0.007
363.15 K, x1 = 1	688.18 ± 1.4	0.475 ± 0.006
